Common to all, as to type: physicochemical
The nature of data set [1]: Stability of solvent to acid catalyst (pTSA) in acrylic solvent system, GC. Particulars: for Wt. % of Solvent At One Week Decomposition Period / Wt. % of Solvent At Three Week Decomposition Period: 0.5 wt % pTSA, 50° C., nitrogen, 100 at start of test. Here is the method:
Acrylic solvent systems were prepared to test the stability of methyl pivalate to acid catalysts, which are commonly present in coating compositions. The formulations contained 29.9 wt % MP, 28.7 wt % pentyl acetate, 20.2 wt % n-butyl acetate, 16.1 wt % n-butyl alcohol, 3.6 wt % methyl ethyl ketone, 1.5 wt % isopropyl alcohol. 2 wt % toluene as an internal standard. The latter materials were purchased from Aldrich Chemical Co.
Para toluene sulfonic acid (pTSA) was added to the above formulation (again, pTSA was purchased from Aldrich Chemical Co.), in the amount of 0.5 wt %. The solutions were sealed and placed in an oven at 50° C. under a nitrogen atmosphere. Samples were withdrawn at intervals for testing. The content of methyl pivalate was monitored over time by gas chromatographic analysis using an HP 5890 gas chromatograph. In a parallel experiment an equal amount of tert butyl acetate was used instead of methyl pivalate. The results are shown below in Table 7 (all percentages are by weight).

The nature of data set [2]: Fluid solvent properties.
Text: One of ordinary skill in the art can readily determine the flash point of a fluid or blend (e.g., ASTM D92-78).
Data set [3] is described as follows: Reid Vapor Pressure. An excerpt:
The invention also includes producing a gasoline fuel containing an ester for use in internal combustion engines, wherein the ester has a Reid Vapor Pressure less than about 4 pounds per square inch. An important factor in determining a compound's ozone formation potential includes the compound's vapor pressure. Compounds with relatively high vapor pressures are more likely to volatilize into the atmosphere from open sources. Potential open sources include, for example, sources from production, distribution, storage and/or combustion of fuels containing oxygenates. The C7 to C14 esters according to the invention are expected to have low vapor pressures in comparison to MTBE and some other oxygenates. Preferably, the esters have a RVP less than about 3.5 psi. More preferably, less than about 3.0 or 2.0 psi. For example, Methyl Pivalate has a Reid Vapor Pressure of about 1.6 psi.

On to `CC(=O)OC(C)(C)C` [t-butyl acetate, tertiary butyl acetate], for which, in data set [1], the “stability to acid catalysts (in words)” value was “not inert with respect to acids”, the “Wt. % of Solvent At One Week Decomposition Period” value was determined as 65.9 Wt. % and the “Wt. % of Solvent At Three Week Decomposition Period” value was found to be 24.1 Wt. %.

As for `CC(C)=O` [Acetone], in data set [2], the “Hansen Solubility Parameter H-Bonding” value turned out to be 3.4, the “Hansen Solubility Parameter Nonpolar” value was 7.6, the “Hansen Solubility Parameter Polar” value amounted to 5.1 and the “Hansen Solubility Parameter Total” value turned out to be 9.2. Also, the “Surface Tension” value in data set [2] turned out to be 22.3.

For `COC(=O)C(C)(C)C` [Methyl Pivalate, methyl pivalate (methyl 1,1,1-trimethyl acetate)], in data set [2], the “Flash Point” value was determined as 7 °C and the “Surface Tension” value is on record as 23.8. Further, in data set [1], the “stability to acid catalysts (in words)” value is “more stable to acid catalysts than is t-butyl acetate”, the “Wt. % of Solvent At One Week Decomposition Period” value was determined as 88.0 Wt. % and the “Wt. % of Solvent At Three Week Decomposition Period” value was 65.1 Wt. %. The “Reid Vapor Pressure” value in data set [3] is “about 1.6 psi”.
